Laboratory results published in US6872711B2, “β-substituted β-aminoethyl phosphonate derivatives” (Ilex Oncology Research S.A., priority 2000, dated 2005).

Assays:
[1] = system: apo(a) secretion in primary cultures of Cynomolgus hepatocytes; test: Lowering the production of apo(a) in primary cultures of Cynomolgus hepatocytes (ELISA of culture medium); type: cell-based, Cynomolgus monkeys; details: Macaca fascicularis, Hepatocyte, tested at 20 μM, 6-24 hours incubation, one range stated for all listed compounds, read-out: lowering of apo(a) secretion (change vs control plates)
Protocol: The compounds of formula (I) were assayed for lowering the production of apo(a) in primary cultures of Cynomolgus hepatocytes.
Protocol: Hepatocytes were isolated from livers of male adult Cynomolgus monkeys by the two-step collagenase perfusion method according to C. Guguen-Guillouzo and A. Guillouzo “Methods for preparation of adult and fetal hepatocytes” p.1-12in “Isolated and Cultured Hepatocytes,” les editions Inserm Paris and John Libbey Eurotext London (1986).
The viability of cells was determined by Trypan blue staining. The cells were then seeded at a density of 1.5-2.10^5 viable cells per 2 cm^2 in 24 well tissue culture plates in a volume of 500 μl per well of Williams E tissue culture medium containing 10% fetal calf serum. Cells were incubated for 6-24 hours at 37° C. in a CO2 incubator (5% CO2) in the presence of 20 μM of the test compounds dissolved in ethanol. Four wells were used for each compound. Nicotinic acid and steroid hormones were used as references to validate the assay system since they are known to decrease Lp(a) in man. Control cells were incubated in the presence of ethanol only.
The amount of Lp(a) secreted in culture medium was directly assayed by ELISA using a commercially available kit. Cells were washed and lysed as described by A. L. White et al., Journal of Lipid Research vol. 34, p. 509-517, (1993) and the cellular content of Lp(a) was assayed as described above. Changes in Lp(a) concentration in culture medium are given as the percentage of value measured for the control plates.

| Structure (SMILES) | inhibition at 20 µM [1] [%] | melting point [°C] |
| --- | --- | --- |
| CCOP(=O)(CC(Nc1cccnc1)c1cc(OC)c(O)c(OC)c1)OCC (stereo not drawn) [Compound 1, diethyl β-(3,5-dimethoxy-4-hydroxyphenyl)-β-[N-(3-pyridyl)-amino]-ethylphosphonate] | 10 to 35 | 164 to 166 |
| COc1cc(C(CP(=O)(OC(C)C)OC(C)C)Nc2cccnc2)cc(OC)c1O (stereo not drawn) [Compound 2, diisopropyl β-(3,5-dimethoxy-4-hydroxyphenyl)-β-[N-(3-pyridyl)-amino]-ethylphosphonate] | 10 to 35 | 138 to 140 |
| CCOP(=O)(CC(Nc1cccnc1)c1cc(C)c(O)c(OC)c1)OCC (stereo not drawn) [Compound 9, diethyl β-(4-hydroxy-3-methoxy-5-methylphenyl)-β-[N-(3-pyridyl)-amino]-ethylphosphonate] | 10 to 35 | 156 to 158 |
| COc1cc(C(CP(=O)(OC(C)C)OC(C)C)Nc2cccnc2)cc(C)c1O (stereo not drawn) [Compound 10, diisopropyl β-(4-hydroxy-3-methoxy-5-methylphenyl)-β-[N-(3-pyridyl)-amino]-ethylphosphonate] | 10 to 35 | 135 to 137 |
| CCOP(=O)(CC(Nc1cccnc1)c1cc(C)c(O)c(C)c1)OCC (stereo not drawn) [Compound 16, diethyl β-(3,5-dimethyl-4-hydroxyphenyl)-β-[N-(3-pyridyl)-amino]-ethylphosphonate] | 10 to 35 | 98 to 101 |
| Cc1cc(C(CP(=O)(OC(C)C)OC(C)C)Nc2cccnc2)cc(C)c1O (stereo not drawn) [Compound 17, diisopropyl β-(3,5-dimethyl-4-hydroxyphenyl)-β-[N-(3-pyridyl)-amino]-ethylphosphonate] | 10 to 35 | 104 to 105 |
| CCOP(=O)(CC(Nc1cccnc1)c1cc(OC)c(OC)c(OC)c1)OCC (stereo not drawn) [Compound 18, diethyl β-(3,4,5-trimethoxyphenyl)-β-[N-(3-pyridyl)-amino]-ethylphosphonate] | 10 to 35 | 104 to 106 |
| COc1cc(C(CP(=O)(OC(C)C)OC(C)C)Nc2cccnc2)cc(OC)c1OC (stereo not drawn) [Compound 19, diisopropyl β-(3,4,5-trimethoxyphenyl)-β-[N-(3-pyridyl)-amino]-ethylphosphonate] | 10 to 35 | 96 to 98 |
| CCOc1cc(C(CP(=O)(OCC)OCC)Nc2cccnc2)cc(C)c1O (stereo not drawn) [Compound 20, diethyl β-(3-ethoxy-4-hydroxy-5-methylphenyl)-β-[N-(3-pyridyl)-amino]-ethylphosphonate] | 10 to 35 | 162 to 164 |
| CCOc1cc(C(CP(=O)(OC(C)C)OC(C)C)Nc2cccnc2)cc(C)c1O (stereo not drawn) [Compound 21, diisopropyl β-(3-ethoxy-4-hydroxy-5-methylphenyl)-β-[N-(3-pyridyl)-amino]-ethylphosphonate] | 10 to 35 | 148 to 150 |
| CCOP(=O)(CC(Nc1cccnc1)c1cc(C(C)(C)C)c(OC)c(C(C)(C)C)c1)OCC (stereo not drawn) [Compound 30, diethyl β-(3,5-di-tert-butyl-4-methoxyphenyl)-β-[N-(3-pyridyl)-amino]-ethylphosphonate] | 10 to 35 | – |
| CCOP(=O)(CC(Nc1cccnc1)c1ccc(C)c(O)c1C)OCC (stereo not drawn) [Compound 31, diethyl β-(2,4-dimethyl-3-hydroxyphenyl)-β-[N-(3-pyridyl)-amino]-ethylphosphonate] | 10 to 35 | – |
| CCOP(=O)(CC(Nc1cccnc1)c1cc(O)c(C)c(OC)c1)OCC (stereo not drawn) [Compound 34, diethyl β-(3-hydroxy-5-methoxy-4-methylphenyl)-β-[N-(3-pyridyl)-amino]-ethylphosphonate] | 10 to 35 | 146 to 147 |
| CCOP(=O)(CC(Nc1cccnc1)c1cc(OC)c(CO)c(OC)c1)OCC (stereo not drawn) [Compound 37, diethyl β-(3,5-dimethoxy-4-hydroxymethylphenyl)-β-[N-(3-pyridyl)-amino]-ethylphosphonate] | 10 to 35 | – |
